Assay results: patent US20260015350A1, “AZAQUINAZOLINE PAN-KRAS INHIBITORS” (Mirati Therapeutics, Inc., priority 2022, published 2026)

Experiments:
KRas^WT = molecular target: T1, KRas^WT (Homo sapiens, UniProt P01116); experiment: KRas binding assay (TR-FRET tracer displacement), KRas WT; conditions: for inhibition at 0.01 µM: single point, 10 nM compound, TR-FRET; for IC50: TR-FRET tracer displacement, KRas WT
T1 construct: Biotinylated KRas (corresponding to amino acids 1-169, produced at Accelegan Inc.); biotin (biotinylated); purchased Accelegan Inc

KRas^G12A = molecular target: T2, KRas^G12A (Homo sapiens, UniProt P01116, G12A); experiment: KRas binding assay (TR-FRET tracer displacement), KRas G12A; conditions: for inhibition at 0.01 µM: single point, 10 nM compound, TR-FRET; for IC50: TR-FRET tracer displacement, KRas G12A
T2 construct: Biotinylated KRas (corresponding to amino acids 1-169, produced at Accelegan Inc.); biotin (biotinylated); purchased Accelegan Inc

KRas^G12C = molecular target: T3, KRas^G12C (Homo sapiens, UniProt P01116, G12C); experiment: KRas binding assay (TR-FRET tracer displacement), KRas G12C; conditions: for inhibition at 0.01 µM: single point, 10 nM compound, TR-FRET; for IC50: TR-FRET tracer displacement, KRas G12C
T3 construct: Biotinylated KRas (corresponding to amino acids 1-169, produced at Accelegan Inc.); biotin (biotinylated); purchased Accelegan Inc

KRas^G12D = molecular target: T4, KRas^G12D (Homo sapiens, UniProt P01116, G12D); experiment: KRas binding assay (TR-FRET tracer displacement), KRas G12D
T4 construct: Biotinylated KRas (corresponding to amino acids 1-169, produced at Accelegan Inc.); biotin (biotinylated); purchased Accelegan Inc

KRas^G12R = molecular target: T5, KRas^G12R (Homo sapiens, UniProt P01116, G12R); experiment: KRas binding assay (TR-FRET tracer displacement), KRas G12R
T5 construct: Biotinylated KRas (corresponding to amino acids 1-169, produced at Accelegan Inc.); biotin (biotinylated); purchased Accelegan Inc

KRas^G12S = molecular target: T6, KRas^G12S (Homo sapiens, UniProt P01116, G12S); experiment: KRas binding assay (TR-FRET tracer displacement), KRas G12S; conditions: for inhibition at 0.01 µM: single point, 10 nM compound, TR-FRET; for IC50: TR-FRET tracer displacement, KRas G12S
T6 construct: Biotinylated KRas (corresponding to amino acids 1-169, produced at Accelegan Inc.); biotin (biotinylated); purchased Accelegan Inc

KRas^G12V = molecular target: T7, KRas^G12V (Homo sapiens, UniProt P01116, G12V); experiment: KRas binding assay (TR-FRET tracer displacement), KRas G12V
T7 construct: Biotinylated KRas (corresponding to amino acids 1-169, produced at Accelegan Inc.); biotin (biotinylated); purchased Accelegan Inc

KRas^G13D = molecular target: T8, KRas^G13D (Homo sapiens, UniProt P01116, G13D); experiment: KRas binding assay (TR-FRET tracer displacement), KRas G13D; conditions: for inhibition at 0.01 µM: single point, 10 nM compound, TR-FRET; for IC50: TR-FRET tracer displacement, KRas G13D
T8 construct: Biotinylated KRas (corresponding to amino acids 1-169, produced at Accelegan Inc.); biotin (biotinylated); purchased Accelegan Inc

KRas^Q61H = molecular target: T9, KRas^Q61H (Homo sapiens, UniProt P01116, Q61H); experiment: KRas binding assay (TR-FRET tracer displacement), KRas Q61H; conditions: for inhibition at 0.01 µM: single point, 10 nM compound, TR-FRET; for IC50: TR-FRET tracer displacement, KRas Q61H
T9 construct: Biotinylated KRas (corresponding to amino acids 1-169, produced at Accelegan Inc.); biotin (biotinylated); purchased Accelegan Inc

[1] = system: KRas-mediated phosphorylation of ERK in AsPC-1 cells; experiment: Inhibition of KRas-mediated phosphorylation of ERK (Cisbio HTRF pERK), AsPC-1 cells; format: cell-based; conditions: Homo sapiens; for IC50: ASPC1, AsPC-1 cells, HTRF pERK
In short: (§1)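 Compound treatment lasts 3 hrs on 6,000 seeded cells, testing 10 doses from a 10 uM top concentration in 3-fold decrements at 0.8% final DMSO. Trametinib at 0.2 uM defines the Min signal. Detection is HTRF on cold-lysed cell extracts.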

[2] = system: KRas-mediated phosphorylation of ERK in H727 cells; experiment: Inhibition of KRas-mediated phosphorylation of ERK (Cisbio HTRF pERK), H727 cells; format: cell-based; conditions: Homo sapiens; for IC50: NCI-H727, H727 cells, HTRF pERK
In short: as §1

[3] = system: KRas-mediated phosphorylation of ERK in A549 cells; experiment: Inhibition of KRas-mediated phosphorylation of ERK (Cisbio HTRF pERK), A549 cells; format: cell-based; conditions: Homo sapiens; for inhibition at 0.1 µM: A549, 3 h, single point, 100 nM compound, 3 hrs
In short: (§2)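 Phosphorylated ERK was quantified by HTRF using d2-conjugate and Cryptate antibodies added to lysates for 2 hrs at room temperature.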

[4] = system: KRas-mediated phosphorylation of ERK in H460 cells; experiment: Inhibition of KRas-mediated phosphorylation of ERK (Cisbio HTRF pERK), H460 cells; format: cell-based; conditions: Homo sapiens; for inhibition at 0.1 µM: NCI-H460, 3 h, single point, 100 nM compound, 3 hrs
In short: as §1

[5] = system: KRas-mediated phosphorylation of ERK in HCT116 cells; experiment: Inhibition of KRas-mediated phosphorylation of ERK (Cisbio HTRF pERK), HCT116 cells; format: cell-based; conditions: Homo sapiens; for inhibition at 0.1 µM: HCT-116, 3 h, single point, 100 nM compound, 3 hrs
In short: as §2

[6] = system: KRas-mediated phosphorylation of ERK in H358 cells; experiment: Inhibition of KRas-mediated phosphorylation of ERK (Cisbio HTRF pERK), H358 cells; format: cell-based; conditions: Homo sapiens; for inhibition at 0.1 µM: NCI-H358, 3 h, single point, 100 nM compound, 3 hrs
In short: as §1

T5 sequence (P01116 1-169 isoform P01116-2 G12R): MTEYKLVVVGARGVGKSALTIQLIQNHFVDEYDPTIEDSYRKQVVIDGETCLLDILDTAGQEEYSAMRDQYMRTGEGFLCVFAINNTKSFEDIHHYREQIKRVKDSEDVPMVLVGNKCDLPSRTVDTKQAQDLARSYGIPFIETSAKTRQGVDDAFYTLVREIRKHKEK
T3 sequence (P01116 1-169 isoform P01116-2 G12C): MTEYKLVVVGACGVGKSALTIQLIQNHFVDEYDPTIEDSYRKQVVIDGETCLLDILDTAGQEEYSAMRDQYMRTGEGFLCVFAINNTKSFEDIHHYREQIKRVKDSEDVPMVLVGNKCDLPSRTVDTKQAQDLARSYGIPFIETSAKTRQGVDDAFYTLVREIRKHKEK
T2 sequence (P01116 1-169 isoform P01116-2 G12A): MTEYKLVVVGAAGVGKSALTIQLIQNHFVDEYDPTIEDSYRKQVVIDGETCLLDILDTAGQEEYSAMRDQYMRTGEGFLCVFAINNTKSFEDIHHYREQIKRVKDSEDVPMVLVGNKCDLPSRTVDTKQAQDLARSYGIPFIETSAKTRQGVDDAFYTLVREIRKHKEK
T4 sequence (P01116 1-169 isoform P01116-2 G12D): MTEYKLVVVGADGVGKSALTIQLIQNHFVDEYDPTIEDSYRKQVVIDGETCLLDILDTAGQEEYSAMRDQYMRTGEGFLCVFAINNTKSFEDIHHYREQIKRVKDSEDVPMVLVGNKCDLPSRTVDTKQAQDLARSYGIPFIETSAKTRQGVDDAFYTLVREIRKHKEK
T1 sequence (P01116 1-169 isoform P01116-2): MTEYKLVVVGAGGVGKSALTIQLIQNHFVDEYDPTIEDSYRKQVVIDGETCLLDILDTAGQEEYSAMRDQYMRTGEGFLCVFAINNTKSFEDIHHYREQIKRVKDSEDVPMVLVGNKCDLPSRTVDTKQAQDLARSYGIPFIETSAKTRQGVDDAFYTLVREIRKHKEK
T7 sequence (P01116 1-169 isoform P01116-2 G12V): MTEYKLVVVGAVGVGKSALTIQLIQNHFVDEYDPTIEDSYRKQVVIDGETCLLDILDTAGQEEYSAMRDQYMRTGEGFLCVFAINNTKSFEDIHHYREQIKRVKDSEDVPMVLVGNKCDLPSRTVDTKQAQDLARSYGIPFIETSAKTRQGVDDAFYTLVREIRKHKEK
T8 sequence (P01116 1-169 isoform P01116-2 G13D): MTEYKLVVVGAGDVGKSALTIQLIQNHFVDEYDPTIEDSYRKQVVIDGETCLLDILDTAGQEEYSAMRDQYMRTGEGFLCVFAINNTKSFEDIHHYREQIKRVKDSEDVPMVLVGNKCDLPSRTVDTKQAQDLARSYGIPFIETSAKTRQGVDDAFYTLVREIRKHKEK
T6 sequence (P01116 1-169 isoform P01116-2 G12S): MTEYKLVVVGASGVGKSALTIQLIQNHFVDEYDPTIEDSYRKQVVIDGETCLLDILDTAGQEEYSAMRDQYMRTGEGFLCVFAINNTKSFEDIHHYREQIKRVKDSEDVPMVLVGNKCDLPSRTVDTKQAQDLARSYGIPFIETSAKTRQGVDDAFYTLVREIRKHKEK
T9 sequence (P01116 1-169 isoform P01116-2 Q61H): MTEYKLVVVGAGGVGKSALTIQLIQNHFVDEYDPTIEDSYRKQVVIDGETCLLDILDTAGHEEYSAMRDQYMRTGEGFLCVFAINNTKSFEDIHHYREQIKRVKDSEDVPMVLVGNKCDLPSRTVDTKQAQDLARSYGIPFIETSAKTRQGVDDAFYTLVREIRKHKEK

| SMILES | IC50 (KRas^G12D) [nM] | IC50 (KRas^G12R) [nM] | IC50 (KRas^G12V) [nM] | IC50 [1] [nM] | IC50 [2] [nM] | IC50 (KRas^WT) [nM] | IC50 (KRas^G12A) [nM] | IC50 (KRas^G12C) [nM] | IC50 (KRas^G12S) [nM] | IC50 (KRas^G13D) [nM] | IC50 (KRas^Q61H) [nM] | inhibition at 0.1 µM [3] [%] | inhibition at 0.1 µM [4] [%] | inhibition at 0.1 µM [5] [%] | inhibition at 0.1 µM [6] [%] | also measured |
| --- | --- | --- | --- | --- | --- | --- | --- | --- | --- | --- | --- | --- | --- | --- | --- | --- |
| CN(C)C(=O)OC[C@@H]1CC[C@@]2(COc3nc(N4CCC[C@@](C)(O)C4)c4cnc(-c5cc(O)cc6ccc(F)c(F)c56)c(F)c4n3)CCCN12 [Example 548, ((3S,7aR)-7a-(((7-(7,8-difluoro-3-hydroxynaphthalen-1-yl)-8-fluoro-4-((R)-3-hydroxy-3-methylpiperidin-1-yl)pyrido[4,3-d]pyrimidin-2-yl)oxy)methyl)hexahydro-1H-pyrrolizin-3-yl)methyl dimethylcarbamate] | 2 | 5 | 3 | 55 | 88 |  |  |  |  |  |  | 38 | 38 | 29 | 59 | inhibition at 0.01 µM (KRas^WT): 79%; inhibition at 0.01 µM (KRas^G12A): 79%; inhibition at 0.01 µM (KRas^G12C): 84%; inhibition at 0.01 µM (KRas^G12S): 79%; inhibition at 0.01 µM (KRas^G13D): 86%; inhibition at 0.01 µM (KRas^Q61H): 79% |
| CCc1c(F)ccc2cc(O)cc(-c3ncc4c(N5CCC[C@]6(CCO6)C5)nc(OCC5(CN(C)C)CC5)nc4c3F)c12 [Example 699, (S)-4-(2-((1-((dimethylamino)methyl)cyclopropyl)methoxy)-8-fluoro-4-(1-oxa-6-azaspiro[3.5]nonan-6-yl)pyrido[4,3-d]pyrimidin-7-yl)-5-ethyl-6-fluoronaphthalen-2-ol] |  |  |  | 2 | 6 |  |  |  |  |  |  | 80 | 95 | 82 | 101 | inhibition at 0.01 µM (KRas^WT): 91%; inhibition at 0.01 µM (KRas^G12A): 87%; inhibition at 0.01 µM (KRas^G12C): 96%; inhibition at 0.01 µM (KRas^G12S): 93%; inhibition at 0.01 µM (KRas^G13D): 96%; inhibition at 0.01 µM (KRas^Q61H): 96%; IC50 ([3]; HTRF pERK): 2 nM; IC50 ([4]; NCI-H460, HTRF pERK): 5 nM; IC50 ([5]; HCT-116, HTRF pERK): 14 nM; IC50 ([6]; NCI-H358, HTRF pERK): 3 nM |
| Cc1ccc2c(-c3ncc4c(N5C[C@@H]6C[C@H](C5)[C@H](O)C6)nc(OC[C@@]56CCCN5C[C@H](F)C6)nc4c3F)cc(O)cc2c1 [Example 746, (1R,5R,6R)-3-(8-fluoro-2-(((2R,7aS)-2-fluorotetrahydro-1H-pyrrolizin-7a(5H)-yl)methoxy)-7-(3-hydroxy-6-methylnaphthalen-1-yl)pyrido[4,3-d]pyrimidin-4-yl)-3-azabicyclo[3.2.1]octan-6-ol] | 226 | 68 | 59 | 2260 | 1340 | 117 | 82 | 106 | 64 | 107 | 166 | -19 | 2 | 10 | -17 |  |
| Cc1cccc2c(-c3ncc4c(N5C[C@@H]6C[C@H](C5)[C@H](O)C6)nc(OC[C@@]56CCCN5C[C@H](F)C6)nc4c3F)cc(O)cc12 [Example 747, (1R,5R,6R)-3-(8-fluoro-2-(((2R,7aS)-2-fluorohexahydro-1H-pyrrolizin-7a-yl)methoxy)-7-(3-hydroxy-5-methylnaphthalen-1-yl)pyrido[4,3-d]pyrimidin-4-yl)-3-azabicyclo[3.2.1]octan-6-ol] | 272 | 76 | 67 | 3850 | 1260 | 107 | 36 | 107 | 61 | 94 | 180 | 4 | -6 | 5 | -6 |  |
| Oc1cc(-c2ncc3c(N4C[C@@H]5C[C@H](C4)[C@H](O)C5)nc(OC[C@@]45CCCN4C[C@H](F)C5)nc3c2F)c2cccc(F)c2c1 [Example 748, (1R,5R,6R)-3-(8-fluoro-7-(5-fluoro-3-hydroxynaphthalen-1-yl)-2-(((2R,7aS)-2-fluorohexahydro-1H-pyrrolizin-7a-yl)methoxy)pyrido[4,3-d]pyrimidin-4-yl)-3-azabicyclo[3.2.1]octan-6-ol] | 32 | 11 | 12 | 788 | 275 | 20 | 16 | 18 | 12 | 21 | 26 | -7 | -6 | 21 | 5 |  |

Second part, led by results:

| IC50 (KRas^G12D) [nM] | IC50 (KRas^G12R) [nM] | IC50 (KRas^G12V) [nM] | IC50 [1] [nM] | IC50 [2] [nM] | IC50 (KRas^WT) [nM] | IC50 (KRas^G12A) [nM] | IC50 (KRas^G12C) [nM] | IC50 (KRas^G12S) [nM] | IC50 (KRas^G13D) [nM] | IC50 (KRas^Q61H) [nM] | SMILES | inhibition at 0.1 µM [3] [%] | inhibition at 0.1 µM [4] [%] | inhibition at 0.1 µM [5] [%] | inhibition at 0.1 µM [6] [%] | also measured |
| --- | --- | --- | --- | --- | --- | --- | --- | --- | --- | --- | --- | --- | --- | --- | --- | --- |
| 54 | 16 | 19 | 1400 | 246 | 34 | 25 | 29 | 19 | 37 | 44 | Oc1cc(-c2ncc3c(N4C[C@@H]5C[C@H](C4)[C@H](O)C5)nc(OC[C@@]45CCCN4C[C@H](F)C5)nc3c2F)c2ccc(F)cc2c1 [Example 749, (1R,5R,6R)-3-(8-fluoro-7-(6-fluoro-3-hydroxynaphthalen-1-yl)-2-(((2R,7aS)-2-fluorohexahydro-1H-pyrrolizin-7a-yl)methoxy)pyrido[4,3-d]pyrimidin-4-yl)-3-azabicyclo[3.2.1]octan-6-ol] | 15 | -3 | 20 | -5 |  |
| 98 | 42 | 29 | 1900 | 1680 | 84 | 63 | 74 | 43 | 74 | 184 | Oc1cc(-c2ncc3c(N4C[C@@H]5C[C@H](C4)[C@H](O)C5)nc(OC[C@@]45CCCN4C[C@H](F)C5)nc3c2F)c2ccccc2c1F [Example 750, (1R,5R,6R)-3-(8-fluoro-7-(4-fluoro-3-hydroxynaphthalen-1-yl)-2-(((2R,7aS)-2-fluorotetrahydro-1H-pyrrolizin-7a(5H)-yl)methoxy)pyrido[4,3-d]pyrimidin-4-yl)-3-azabicyclo[3.2.1]octan-6-ol] | -1 | 16 | 2 | 15 | inhibition at 0.1 µM ([1]; ASPC1, 3 h, single point, 100 nM compound, 3 hrs, AsPC-1 cells): -1%; inhibition at 0.1 µM ([2]; NCI-H727, 3 h, single point, 100 nM compound, 3 hrs, H727 cells): 1% |
| 2450 | 778 | 727 | 8950 | > 10000 | 754 | 716 | 635 | 414 | 551 | 891 | Oc1cc(-c2ncc3c(N4C[C@@H]5C[C@H](C4)[C@H](O)C5)nc(OC[C@@]45CCCN4C[C@H](F)C5)nc3c2F)c2ccccc2c1Br [Example 781, (1R,5R,6R)-3-(7-(4-bromo-3-hydroxynaphthalen-1-yl)-8-fluoro-2-(((2R,7aS)-2-fluorohexahydro-1H-pyrrolizin-7a-yl)methoxy)pyrido[4,3-d]pyrimidin-4-yl)-3-azabicyclo[3.2.1]octan-6-ol] | -24 |  |  | 10 |  |
